# Assay results reported in patent publication US6479435B1, “Diaryl ethers and processes for their preparation and herbicidal and desiccant compositions containing them” (ISK Americas Incorporated, priority 1997, dated 2002).
# Assays:
# Assay type in all cases: in vivo
# [1] = system: upland rice (Oryza sp., var.Tebonnet, RICE); assay: Post-emerge greenhouse test, crop damage rating; conditions: 14 days after application
# Method in brief: (§1)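 Scores use a 0 (no damage) to 100 (complete kill) scale, taken 14 days after a foliar spray. Acetone solutions with 0.25% v/v non-ionic surfactant were applied by track sprayer at 187 l/ha and 63-1000 g ai/ha to bottom-watered 2-3 leaf plants.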
# [2] = system: field corn (Zea mays L., var. Dekalb 535, CORN); assay: Post-emerge greenhouse test, crop damage rating; conditions: 14 days after application
# Method in brief: as §1
# [3] = system: soybean (Glycine max L., var. Pella 86, SOY); assay: Post-emerge greenhouse test, crop damage rating; conditions: 14 days after application
# Method in brief: as §1
# [4] = system: common ragweed (Ambrosia artemisiifolia L., AMBEL); assay: Post-emerge greenhouse herbicide test, phytotoxicity rating; conditions: 14 days after application
# Method in brief: as §1
# [5] = system: large crabgrass (Digitaria sanguinalis, DIGSA); assay: as above; conditions: 14 days after application
# Method in brief: as §1
# [6] = system: green foxtail (Setaria viridis, SETVI); assay: as above; conditions: 14 days after application
# Method in brief: as §1
# [7] = system: barnyardgrass (Echinochloa crusgalli, ECHCG); assay: as above; conditions: 14 days after application
# Method in brief: as §1
# [8] = system: redroot pigweed (Amaranthus retroflexus, AMARE); assay: as above; conditions: 14 days after application
# Method in brief: as §1
# [9] = system: sicklepod (Cassia obtusifolia, CASOB); assay: as above; conditions: 14 days after application
# Method in brief: as §1
# [10] = system: ivyleaf morningglory (Ipomoea hederacea, IPOHE); assay: as above; conditions: 14 days after application
# Method in brief: as §1
# [11] = system: velvetleaf (Abutilon theophrasti, ABUTH); assay: as above; conditions: 14 days after application
# Method in brief: as §1
# [12] = system: lambsquarters (Chenopodium album, CHEAL); assay: as above; conditions: 14 days after application
# Method in brief: as §1
# [13] = system: Johnsongrass (Sorghum halepense, SORHA); assay: as above; conditions: 14 days after application
# Method in brief: as §1
# [14] = system: upland rice (Oryza sp., var.Tebonnet, RICE); assay: Pre-emerge greenhouse test, crop damage rating; conditions: 14 days after application, rating scale 0-100
# Method in brief: (§2)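 Visual 0–100 injury rating (100 = all plants dead) taken 14 days after treatment. Rates of 125–1000 g ai/ha in acetone, 187 l/ha, were sprayed onto soil one day post-sowing; pots were surface-watered to incorporate, then bottom-watered.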
# [15] = system: field corn (Zea mays L., var. Dekalb 535, CORN); assay: Pre-emerge greenhouse test, crop damage rating; conditions: 14 days after application, rating scale 0-100
# Method in brief: as §2
# [16] = system: large crabgrass (Digitaria sanguinalis, DIGSA); assay: Pre-emerge greenhouse herbicide test, phytotoxicity rating; conditions: 14 days after application, rating scale 0-100
# Method in brief: as §2
# [17] = system: green foxtail (Setaria viridis, SETVI); assay: as above; conditions: 14 days after application, rating scale 0-100
# Method in brief: as §2
# [18] = system: barnyardgrass (Echinochloa crusgalli, ECHCG); assay: as above; conditions: 14 days after application, rating scale 0-100
# Method in brief: as §2
# [19] = system: redroot pigweed (Amaranthus retroflexus, AMARE); assay: as above; conditions: 14 days after application, rating scale 0-100
# Method in brief: as §2
# [20] = system: common ragweed (Ambrosia artemisiifolia L., AMBEL); assay: as above; conditions: 14 days after application, rating scale 0-100
# Method in brief: as §2
# [21] = system: sicklepod (Cassia obtusifolia, CASOB); assay: as above; conditions: 14 days after application, rating scale 0-100
# Method in brief: as §2
# [22] = system: ivyleaf morningglory (Ipomoea hederacea, IPOHE); assay: as above; conditions: 14 days after application, rating scale 0-100
# Method in brief: as §2
# [23] = system: velvetleaf (Abutilon theophrasti, ABUTH); assay: as above; conditions: 14 days after application, rating scale 0-100
# Method in brief: as §2
# [24] = system: lambsquarters (Chenopodium album, CHEAL); assay: as above; conditions: 14 days after application, rating scale 0-100
# Method in brief: as §2
# [25] = system: Johnsongrass (Sorghum halepense, SORHA); assay: as above; conditions: 14 days after application, rating scale 0-100
# Method in brief: as §2
# [26] = system: soybean (Glycine max L., var. Pella 86, SOY); assay: Pre-emerge greenhouse test, crop damage rating; conditions: 14 days after application, rating scale 0-100
# Method in brief: as §2
structure (smiles),measurement,setting,value
O=c1n(CCCF)nnn1-c1cc(Oc2ncccc2C(F)(F)F)c(Cl)cc1F [Compound 6-6],RICE crop damage rating (0-100),[1]; 63 g al/ha,20
same,RICE crop damage rating (0-100),[1]; 500 g al/ha,40
same,CORN crop damage rating (0-100),[2]; 63 g al/ha,5
same,CORN crop damage rating (0-100),[2]; 500 g al/ha,15
same,SOY crop damage rating (0-100),[3]; 63 g al/ha,10
same,SOY crop damage rating (0-100),[3]; 500 g al/ha,50
same,AMBEL phytotoxicity rating (0-100),[4]; 63 g al/ha,20
same,AMBEL phytotoxicity rating (0-100),[4]; 500 g al/ha,20
same,DIGSA phytotoxicity rating (0-100),[5]; 63 g al/ha,0
same,DIGSA phytotoxicity rating (0-100),[5]; 500 g al/ha,10
same,SETVI phytotoxicity rating (0-100),[6]; 63 g al/ha,10
same,SETVI phytotoxicity rating (0-100),[6]; 500 g al/ha,40
same,ECHCG phytotoxicity rating (0-100),[7]; 63 g al/ha,20
same,ECHCG phytotoxicity rating (0-100),[7]; 500 g al/ha,70
same,AMARE phytotoxicity rating (0-100),[8]; 63 g al/ha,70
same,AMARE phytotoxicity rating (0-100),[8]; 500 g al/ha,95
same,CASOB phytotoxicity rating (0-100),[9]; 63 g al/ha,0
same,CASOB phytotoxicity rating (0-100),[9]; 500 g al/ha,30
same,IPOHE phytotoxicity rating (0-100),[10]; 63 g al/ha,60
same,IPOHE phytotoxicity rating (0-100),[10]; 500 g al/ha,95
same,ABUTH phytotoxicity rating (0-100),[11]; 63 g al/ha,50
same,ABUTH phytotoxicity rating (0-100),[11]; 500 g al/ha,95
same,CHEAL phytotoxicity rating (0-100),[12]; 63 g al/ha,90
same,CHEAL phytotoxicity rating (0-100),[12]; 500 g al/ha,100
same,SORHA phytotoxicity rating (0-100),[13]; 63 g al/ha,0
same,SORHA phytotoxicity rating (0-100),[13]; 500 g al/ha,70
same,crop damage rating RICE,[14]; 125 g ai/ha,0
same,crop damage rating RICE,[14]; 500 g ai/ha,30
same,crop damage rating CORN,[15]; 125 g ai/ha,0
same,crop damage rating CORN,[15]; 500 g ai/ha,0
same,phytotoxicity rating DIGSA,[16]; 125 g ai/ha,20
same,phytotoxicity rating DIGSA,[16]; 500 g ai/ha,100
same,phytotoxicity rating SETVI,[17]; 125 g ai/ha,95
same,phytotoxicity rating SETVI,[17]; 500 g ai/ha,100
same,phytotoxicity rating ECHCG,[18]; 125 g ai/ha,20
same,phytotoxicity rating ECHCG,[18]; 500 g ai/ha,60
same,phytotoxicity rating AMARE,[19]; 125 g ai/ha,95
same,phytotoxicity rating AMARE,[19]; 500 g ai/ha,100
same,phytotoxicity rating AMBEL,[20]; 125 g ai/ha,30
same,phytotoxicity rating AMBEL,[20]; 500 g ai/ha,60
same,phytotoxicity rating CASOB,[21]; 125 g ai/ha,10
same,phytotoxicity rating CASOB,[21]; 500 g ai/ha,0
same,phytotoxicity rating IPOHE,[22]; 125 g ai/ha,30
same,phytotoxicity rating IPOHE,[22]; 500 g ai/ha,50
same,phytotoxicity rating ABUTH,[23]; 125 g ai/ha,80
same,phytotoxicity rating ABUTH,[23]; 500 g ai/ha,100
same,phytotoxicity rating CHEAL,[24]; 125 g ai/ha,100
same,phytotoxicity rating CHEAL,[24]; 500 g ai/ha,100
same,phytotoxicity rating SORHA,[25]; 125 g ai/ha,30
same,phytotoxicity rating SORHA,[25]; 500 g ai/ha,95
same,crop damage rating SOY,[26]; 125 g ai/ha,0
same,crop damage rating SOY,[26]; 500 g ai/ha,10
O=c1n(CCCF)nnn1-c1cc(Oc2ccc(C(F)(F)F)cn2)c(Cl)cc1F [Compound 6-8],RICE crop damage rating (0-100),[1]; 500 g al/ha,35
same,CORN crop damage rating (0-100),[2]; 500 g al/ha,5
same,SOY crop damage rating (0-100),[3]; 500 g al/ha,60
same,AMBEL phytotoxicity rating (0-100),[4]; 500 g al/ha,20
same,DIGSA phytotoxicity rating (0-100),[5]; 500 g al/ha,20
same,SETVI phytotoxicity rating (0-100),[6]; 500 g al/ha,90
same,ECHCG phytotoxicity rating (0-100),[7]; 500 g al/ha,10
same,AMARE phytotoxicity rating (0-100),[8]; 500 g al/ha,80
same,CASOB phytotoxicity rating (0-100),[9]; 500 g al/ha,40
same,IPOHE phytotoxicity rating (0-100),[10]; 500 g al/ha,60
same,ABUTH phytotoxicity rating (0-100),[11]; 500 g al/ha,98
same,CHEAL phytotoxicity rating (0-100),[12]; 500 g al/ha,95
same,SORHA phytotoxicity rating (0-100),[13]; 500 g al/ha,10
same,crop damage rating RICE,[14]; 500 g ai/ha,10
same,crop damage rating CORN,[15]; 500 g ai/ha,0
same,phytotoxicity rating DIGSA,[16]; 500 g ai/ha,75
same,phytotoxicity rating SETVI,[17]; 500 g ai/ha,100
same,phytotoxicity rating ECHCG,[18]; 500 g ai/ha,0
same,phytotoxicity rating AMARE,[19]; 500 g ai/ha,85
same,phytotoxicity rating AMBEL,[20]; 500 g ai/ha,0
same,phytotoxicity rating CASOB,[21]; 500 g ai/ha,0
same,phytotoxicity rating IPOHE,[22]; 500 g ai/ha,0
same,phytotoxicity rating ABUTH,[23]; 500 g ai/ha,80
same,phytotoxicity rating CHEAL,[24]; 500 g ai/ha,100
same,phytotoxicity rating SORHA,[25]; 500 g ai/ha,80
same,crop damage rating SOY,[26]; 500 g ai/ha,0
